We go through one compound from paper PMC6066978, “Chronic Intermittent Hypoxia-Induced Vascular Dysfunction in Rats is Reverted by N-Acetylcysteine Supplementation and Arginase Inhibition” (Frontiers in Physiology, 2018).

This assay has as its target arginase. The assay is described as follows: arginase activity (urea production, ISPF colorimetric) in human placental homogenate. It counts as biochemical.

By Ki is commonly meant the equilibrium dissociation constant of an inhibitor or competing ligand from its target. A higher Ki goes with lower affinity. `N[C@@H](CCCCB(O)O)C(=O)O` [ABH, 2(S)-amino-6-boronohexanoic acid] displayed an inhibition constant Ki of 4.78 ± 1.76 µM.
